According to patent US9850247B2 (Almac Discovery Limited, priority 2013, dated 2017):

Columns and labels:
Wee-1 kinase = target: T1, Wee-1 kinase (Homo sapiens, UniProt P30291); test: Measurement of Wee-1 kinase activity (ADP-Glo luminescent kit); format: biochemical
T1 construct: purchased Invitrogen PV3817
In short: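 ADP-Glo luminescence reads ADP made over 1 h at RT, after an aliquot of 30 μM ATP and 2.0 μg/mL poly(Lys,Tyr 4:1) substrate. Before that, the kinase sat 30 min with inhibitor in Tris-HCl/MgCl2 buffer with BSA and DTT. IC50 came from regression of percent inhibition.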

[1] = test system: phospho-cdc2 (Tyr15) in HT-29 cells; test: Effect on Cdc2 phosphorylation at Tyr15, Cell-Based ELISA Base Kit (Method 3); conditions: Homo sapiens, HT-29, 8 h, eight hours incubation, normalized to total cdc2, read-out: HT29 pCDC2 method 3
In short: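 HT-29 cells were treated with compounds for 8 h at 37 °C, then fixed in 4% formaldehyde. Phospho-cdc2 (Tyr15) and total cdc2 were read by dual-fluorogenic cell-based ELISA at 600/450 nm. Phospho signal was normalized to total cdc2 and expressed as % of DMSO control, and EC50 came from non-linear regression.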

[2] = CLint estimates using human liver microsomes (Method 4); format: in vitro ADME; conditions: pH 7.4, 1 μM compound, read-out: Mics - CLint (HLM CLint)
In short: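 Depletion measured by LC/MS/MS in MRM mode over 2–50 min after starting reactions with 1 mM NADPH. Incubations used 0.5 mg/mL human liver microsomal protein, 1 μM compound, 0.1% DMSO, pH 7.4 phosphate buffer, 37 °C. ln peak area plotted against time; the gradient gave t½ and intrinsic clearance.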

T1 sequence (P30291 whole entry): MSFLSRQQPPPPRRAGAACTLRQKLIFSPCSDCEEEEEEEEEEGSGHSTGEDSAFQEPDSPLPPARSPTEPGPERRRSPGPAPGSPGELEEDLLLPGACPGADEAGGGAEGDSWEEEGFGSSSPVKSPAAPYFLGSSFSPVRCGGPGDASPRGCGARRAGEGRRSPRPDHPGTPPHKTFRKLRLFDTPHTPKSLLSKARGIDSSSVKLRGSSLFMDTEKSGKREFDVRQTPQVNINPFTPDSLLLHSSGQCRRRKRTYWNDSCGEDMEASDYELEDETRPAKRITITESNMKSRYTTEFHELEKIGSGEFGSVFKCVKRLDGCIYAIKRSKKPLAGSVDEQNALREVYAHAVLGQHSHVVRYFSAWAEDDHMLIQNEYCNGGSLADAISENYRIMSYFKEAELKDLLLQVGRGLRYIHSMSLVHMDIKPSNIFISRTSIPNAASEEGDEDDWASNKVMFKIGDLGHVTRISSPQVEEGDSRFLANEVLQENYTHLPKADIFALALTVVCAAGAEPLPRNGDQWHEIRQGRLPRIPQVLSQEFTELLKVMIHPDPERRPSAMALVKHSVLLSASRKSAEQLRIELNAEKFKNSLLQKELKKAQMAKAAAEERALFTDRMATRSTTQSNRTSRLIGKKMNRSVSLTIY

Row | SMILES | IC50 (Wee-1 kinase) | microsomal CLint at 1 μM [2] | EC50 [1]
1 | CN1CCN(c2ccc(Nc3ncc4c(n3)N(C)CN(c3c(Cl)cccc3Cl)C4=O)cc2)[C@H](CO)C1 [Example 128, (S)-3-(2,6-dichlorophenyl)-7-((4-(2-(hydroxymethyl)-4-methylpiperazin-1-yl)phenyl)amino)-1-methyl-2,3-dihydropyrimido[4,5-d]pyrimidin-4(1H)-one] | 0.01 to 0.1 µM | 15 to 50 µL/min/mg | 0.1 to 1 µM
2 | C[C@@H]1CN(c2ccc(Nc3ncc4c(n3)N(C)CN(c3c(Cl)cccc3Cl)C4=O)cc2C(C)(C)O)CCN1 [Example 140, (R)-3-(2,6-dichlorophenyl)-7-((3-(2-hydroxypropan-2-yl)-4-(3-methylpiperazin-1-yl)phenyl)amino)-1-methyl-2,3dihydropyrimido [4,5-d]pyrimidin-4(1H)-one] | 0.01 to 0.1 µM | 15 to 50 µL/min/mg | ≥ 1 µM
3 | C[C@@H]1CN(c2ccc(Nc3ncc4c(n3)N(C)CN(c3c(Cl)cccc3Cl)C4=O)cc2CO)C[C@H](C)N1 [Example 158, 3-(2,6-dichlorophenyl)-7-((4-((3S,5R)-3,5-dimethylpiperazin-1-yl)-3-(hydroxymethyl)phenyl)amino)-1-methyl-2,3-dihydropyrimido[4,5-d]pyrimidin-4(1H)-one] | ≤ 0.01 µM | ≤ 15 µL/min/mg | 0.1 to 1 µM
4 | CCN1CCN(c2ccc(Nc3ncc4c(n3)N(C)CN(c3c(Cl)cccc3Cl)C4=O)cc2CO)CC1 [Example 72, 3-(2,6-dichlorophenyl)-7-((4-(4-ethylpiperazin-1-yl)-3-(hydroxymethyl)phenyl)amino)-1-methyl-2,3-dihydropyrimido[4,5-d]pyrimidin-4(1H)-one] | ≤ 0.01 µM | ≤ 15 µL/min/mg | 0.1 to 1 µM
5 | CC(C)N1CCN(c2ccc(Nc3ncc4c(n3)N(C)CN(c3c(F)cccc3Cl)C4=O)cc2CO)CC1 [Example 89, 3-(2-chloro-6-fluorophenyl)-7-((3-(hydroxymethyl)-4-(4-isopropylpiperazin-1-yl)phenyl)amino)-1-methyl-2,3-dihydropyrimido[4,5-d]pyrimidin-4(1H)-one] | ≤ 0.01 µM | ≤ 15 µL/min/mg | 0.1 to 1 µM
6 | CN1CN(c2c(Cl)cccc2Cl)C(=O)c2cnc(Nc3ccc(C4CCNCC4)c(CO)c3)nc21 [Example 167, 3-(2,6-dichlorophenyl)-7-((3-(hydroxymethyl)-4-(piperidin-4-yl)phenyl)amino)-1-methyl-2,3-dihydropyrimido[4,5-d]pyrimidin-4(1H)-one] | ≤ 0.01 µM | ≤ 15 µL/min/mg | ≥ 1 µM

Further lines, with some results ahead:

Row | IC50 (Wee-1 kinase) | microsomal CLint at 1 μM [2] | SMILES | EC50 [1]
7 | ≤ 0.01 µM | ≤ 15 µL/min/mg | COC[C@H]1CN(c2ccc(Nc3ncc4c(n3)N(C)CN(c3c(Cl)cccc3Cl)C4=O)cc2CO)CCN1 [Example 135, (R)-3-(2,6-dichlorophenyl)-7-((3-(hydroxymethyl)-4-(3-(methoxymethyl)piperazin-1-yl)phenyl)amino)-1-methyl-2,3-dihydropyrimido[4,5-d]pyrimidin-4(1H)-one] | 0.1 to 1 µM
8 | ≤ 0.01 µM | ≤ 15 µL/min/mg | C[C@@H]1CN(c2ccc(Nc3ncc4c(n3)N(C)CN(c3c(Cl)cccc3Cl)C4=O)cc2CO)CCN1 [Example 38, (R)-3-(2,6-dichlorophenyl)-7-((3-(hydroxymethyl)-4-(3-methylpiperazin-1-yl)phenyl)amino)-1-methyl-2,3-dihydropyrimido[4,5-d]pyrimidin-4(1H)-one] | 0.1 to 1 µM
9 | ≤ 0.01 µM | 15 to 50 µL/min/mg | CNCc1cc(Nc2ncc3c(n2)N(C)CN(c2c(Cl)cccc2Cl)C3=O)ccc1N(C)C [Example 153, 3-(2,6-dichlorophenyl)-7-((4-(dimethylamino)-3-((methylamino)methyl)phenyl)amino)-1-methyl-2,3-dihydropyrimido[4,5-d]pyrimidin-4(1H)-one] | 0.1 to 1 µM
